Reference: patent publication US11596639B2, “Substituted indole Mcl-1 inhibitors” (Vanderbilt University, priority 2016, dated 2023)

Key:
[1] = tested on: H929 human cancer cell lines; test: Cellular viability / proliferation (Cell TiterGlo, 72 h); type: cell-based; conditions: Homo sapiens, NCI-H929, 72 h, read-out: GI50 on cellular proliferation of H929 human cancer cell lines, H929 cells, 72 h, Cell TiterGlo, 10% FBS
Outline: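 Compounds were added as 2-fold serial dilutions from 50 μM (final DMSO <1%) to H929 cells seeded 1,000 per well in 10% FBS medium one day earlier.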

Mcl-1 = Mcl-1 (Homo sapiens (Human), UniProt Q07820); test: Fluorescence polarization anisotropy (FPA) competition assay, FITC-Bak or FITC-Bim BH3 peptide; type: binding; conditions: read-out: Ki for Inhibition of Mcl-1 by FPA assay
Mcl-1, sequence (Q07820 172-327): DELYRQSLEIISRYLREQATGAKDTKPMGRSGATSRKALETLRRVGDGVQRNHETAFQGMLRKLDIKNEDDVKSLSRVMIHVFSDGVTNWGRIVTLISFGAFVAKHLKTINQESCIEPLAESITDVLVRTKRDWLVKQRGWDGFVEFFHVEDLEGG

**Q.** What does the source list for Cc1noc(-c2ccc3c(c2)c(N2C[C@@H](C)n4c(c(CCCOc5cc(C)c(Cl)c(C)c5)c5ccc(Cl)c(-c6c(C)nn(C)c6C)c54)C2=O)cn3C)n1 [Example 393, (R)-7-Chloro-10-(3-(4-chloro-3,5-dimethylphenoxy)propyl)-4-methyl-2-(1-methyl-5-(3-methyl-1,2,4-oxadiazol-5-yl)-1H-indol-3-yl)-6-(1,3,5-trimethyl-1H-pyrazol-4-yl)-3,4-dihydropyrazino[1,2-a]indol-1(2H)-one]?
**A.** GI50 [1]: 1.2 µM; Ki (Mcl-1): 0.0023 µM

**Q.** How did the GI50 [1] turn out when Cc1cc(OCCCc2c3n(c4c(-c5c(C)nn(C)c5C)c(Cl)ccc24)[C@H](C)CN(c2cc(OCCN4CCCC4)cc4cc(C(=O)O)n(C)c24)C3=O)cc(C)c1Cl [Example 460, (R)-7-(7-Chloro-10-(3-(4-chloro-3,5-dimethylphenoxy)propyl)-4-methyl-1-oxo-6-(1,3,5-trimethyl-1H-pyrazol-4-yl)-3,4-dihydropyrazino[1,2-a]indol-2(1H)-yl)-1-methyl-5-(2-(pyrrolidin-1-yl)ethoxy)-1H-indole-2-carboxylic acid] was run?
**A.** 0.42 µM

**Q.** What about the Ki (Mcl-1) of the same compound?
**A.** 0.0017 µM

**Q.** Which GI50 [1] does the source give for Cc1cc(OCCCc2c3n(c4c(-c5c(C)nn(C)c5C)c(Cl)ccc24)[C@H](C)CN(c2cn(C)c4ccc(-c5nc[nH]n5)cc24)C3=O)cc(C)c1Cl [Example 420, (R)-7-Chloro-10-(3-(4-chloro-3,5-dimethylphenoxy)propyl)-4-methyl-2-(1-methyl-5-(1H-1,2,4-triazol-3-yl)-1H-indol-3-yl)-6-(1,3,5-trimethyl-1H-pyrazol-4-yl)-3,4-dihydropyrazino[1,2-a]indol-1(2H)-one] here?
**A.** 0.28 µM

**Q.** What about the Ki (Mcl-1) of the same compound?
**A.** 0.002 µM

**Q.** Which GI50 [1] does the source give for Cc1cc(OCCCc2c3n(c4c(-c5c(C)nn(C)c5C)c(Cl)ccc24)[C@H](C)CN(c2cccc4c2cc(C(=O)O)n4CC2CCOCC2)C3=O)cc(C)c1Cl [Example 198, (R)-4-(7-Chloro-10-(3-(4-chloro-3,5-dimethylphenoxy)propyl)-4-methyl-1-oxo-6-(1,3,5-trimethyl-1H-pyrazol-4-yl)-3,4-dihydropyrazino[1,2-a]indol-2(1H)-yl)-1-((tetrahydro-2H-pyran-4-yl)methyl)-1H-indole-2-carboxylic acid] here?
**A.** 0.61 µM

**Q.** What about the Ki (Mcl-1) of the same compound?
**A.** < 0.001 µM

**Q.** Which results are given for Cc1cc(OCCCc2c3n(c4c(-c5c(C)nn(C)c5C)c(Cl)ccc24)[C@H](C)CN(c2ccc(C(=O)O)c4ccccc24)C3=O)cc(C)c1Cl [Example 189, (R)-4-(7-Chloro-10-(3-(4-chloro-3,5-dimethylphenoxy)propyl)-4-methyl-1-oxo-6-(1,3,5-trimethyl-1H-pyrazol-4-yl)-3,4-dihydropyrazino[1,2-a]indol-2(1H)-yl)-1-naphthoic acid]?
**A.** GI50 [1]: 0.92 µM; Ki (Mcl-1): 0.0012 µM

**Q.** For Cc1cc(OCCCc2c3n(c4c(-c5c(C)nn(C)c5C)c(Cl)ccc24)[C@H](C)CN(c2cccc4c2cc(C#N)n4C)C3=O)cc(C)c1Cl [Example 301, 4-[(4R)-7-chloro-10-[3-(4-chloro-3,5-dimethyl-phenoxy)propyl]-4-methyl-1-oxo-6-(1,3,5-trimethylpyrazol-4-yl)-3,4-dihydropyrazino[1,2-a]indol-2-yl]-1-methyl-indole-2-carbonitrile], which GI50 [1] is on record?
**A.** 8.3 µM

**Q.** What about the Ki (Mcl-1) of the same compound?
**A.** 0.0028 µM

**Q.** CCn1cc(N2C[C@@H](C)n3c(c(CCCOc4cc(C)c(Cl)c(C)c4)c4ccc(Cl)c(-c5c(C)nn(C)c5C)c43)C2=O)c2cccc(C(=O)O)c21 [Example 83, (R)-3-(7-Chloro-10-(3-(4-chloro-3,5-dimethylphenoxy)propyl)-4-methyl-1-oxo-6-(1,3,5-trimethyl-1H-pyrazol-4-yl)-3,4-dihydropyrazino[1,2-a]indol-2(1H)-yl)-1-ethyl-1H-indole-7-carboxylic acid] was tested. Which GI50 [1] did it give?
**A.** 1.1 µM

**Q.** What about the Ki (Mcl-1) of the same compound?
**A.** < 0.001 µM

**Q.** Cc1cc(OCCCc2c3n(c4c(-c5c(C)nn(C)c5C)c(Cl)ccc24)[C@H](C)CN(c2c(C(=O)O)ccc4ccccc24)C3=O)cc(C)c1Cl [Example 190, (R)-1-(7-Chloro-10-(3-(4-chloro-3,5-dimethylphenoxy)propyl)-4-methyl-1-oxo-6-(1,3,5-trimethyl-1H-pyrazol-4-yl)-3,4-dihydropyrazino[1,2-a]indol-2(1H)-yl)-2-naphthoic acid] was tested. Which GI50 [1] did it give?
**A.** 2.2 µM

**Q.** What about the Ki (Mcl-1) of the same compound?
**A.** < 0.001 µM

**Q.** Which results are given for COCCn1c(C(N)=O)cc2cccc(N3C[C@@H](C)n4c(c(CCCOc5cc(C)c(Cl)c(C)c5)c5ccc(Cl)c(-c6c(C)nn(C)c6C)c54)C3=O)c21 [Example 354, (R)-7-(7-Chloro-10-(3-(4-chloro-3,5-dimethylphenoxy)propyl)-4-methyl-1-oxo-6-(1,3,5-trimethyl-1H-pyrazol-4-yl)-3,4-dihydropyrazino[1,2-a]indol-2(1H)-yl)-1-(2-methoxyethyl)-1H-indole-2-carboxamide]?
**A.** GI50 [1]: 0.58 µM; Ki (Mcl-1): 0.0043 µM

**Q.** What does the source list for Cc1cc(OCCCc2c3n(c4c(-c5c(C)nn(C)c5C)c(Cl)ccc24)[C@H](C)CN(c2cn(C)c4cc(Cl)c(C(=O)O)cc24)C3=O)cc(C)c1Cl [Example 365, (R)-6-Chloro-3-(7-chloro-10-(3-(4-chloro-3,5-dimethylphenoxy)propyl)-4-methyl-1-oxo-6-(1,3,5-trimethyl-1H-pyrazol-4-yl)-3,4-dihydropyrazino[1,2-a]indol-2(1H)-yl)-1-methyl-1H-indole-5-carboxylic acid]?
**A.** GI50 [1]: 2 µM; Ki (Mcl-1): 0.0017 µM

**Q.** For Cc1cc(OCCCc2c3n(c4c(-c5c(C)nn(C)c5C)c(Cl)ccc24)[C@H](C)CN(c2cccc4c(C(=O)O)c(C)n(C)c24)C3=O)cc(C)c1Cl [Example 417, (R)-7-(7-Chloro-10-(3-(4-chloro-3,5-dimethylphenoxy)propyl)-4-methyl-1-oxo-6-(1,3,5-trimethyl-1H-pyrazol-4-yl)-3,4-dihydropyrazino[1,2-a]indol-2(1H)-yl)-1,2-dimethyl-1H-indole-3-carboxylic acid], which GI50 [1] is on record?
**A.** 0.34 µM

**Q.** And the Ki (Mcl-1)?
**A.** 0.0013 µM

**Q.** For Cc1cc(OCCCc2c3n(c4c(-c5c(C)nc(CNC6CCN(C)CC6)nc5C)c(Cl)ccc24)[C@H](C)CN(c2cn(C)c4ccc(C(=O)O)cc24)C3=O)cc(C)c1Cl [Example 437, (R)-3-(7-Chloro-10-(3-(4-chloro-3,5-dimethylphenoxy)propyl)-6-(4,6-dimethyl-2-(((1-methylpiperidin-4-yl)amino)methyl)pyrimidin-5-yl)-4-methyl-1-oxo-3,4-dihydropyrazino[1,2-a]indol-2(1H)-yl)-1-methyl-1H-indole-5-carboxylic acid], which GI50 [1] is on record?
**A.** 1.2 µM

**Q.** What about the Ki (Mcl-1) of the same compound?
**A.** 0.0047 µM

**Q.** What does the source list for Cc1cc(OCCCc2c3n(c4c(-c5c(C)nn(C)c5C)c(Cl)ccc24)CCCN(c2cc(C(=O)O)cc4c2N(C)CCO4)C3=O)cc(C)c1Cl [Example 61, 5-[8-chloro-11-[3-(4-chloro-3,5-dimethyl-phenoxy)propyl]-1-oxo-7-(1,3,5-trimethylpyrazol-4-yl)-4,5-dihydro-3H-[1,4]diazepino[1,2-a]indol-2-yl]-4-methyl-2,3-dihydro-1,4-benzoxazine-7-carboxylic acid]?
**A.** GI50 [1]: 8.2 µM; Ki (Mcl-1): 0.0057 µM

**Q.** For COCCn1c(C(=O)O)cc2cc(C(C)C)cc(N3C[C@@H](C)n4c(c(CCCOc5cc(C)c(Cl)c(C)c5)c5ccc(Cl)c(-c6c(C)nn(C)c6C)c54)C3=O)c21 [Example 364, (R)-7-(7-Chloro-10-(3-(4-chloro-3,5-dimethylphenoxy)propyl)-4-methyl-1-oxo-6-(1,3,5-trimethyl-1H-pyrazol-4-yl)-3,4-dihydropyrazino[1,2-a]indol-2(1H)-yl)-5-isopropyl-1-(2-methoxyethyl)-1H-indole-2-carboxylic acid], which GI50 [1] is on record?
**A.** 0.54 µM

**Q.** What about the Ki (Mcl-1) of the same compound?
**A.** 0.001 µM

**Q.** Cc1cc(OCCCc2c3n(c4c(-c5c(C)nn(C)c5C)c(Cl)ccc24)[C@H](C)CN(c2cc(C(=O)O)c4cc[nH]c4c2)C3=O)cc(C)c1Cl [Example 101, (R)-6-(7-chloro-10-(3-(4-chloro-3,5-dimethylphenoxy)propyl)-4-methyl-1-oxo-6-(1,3,5-trimethyl-1H-pyrazol-4-yl)-3,4-dihydropyrazino[1,2-a]indol-2(1H)-yl)-1H-indole-4-carboxylic acid] was tested. Which GI50 [1] did it give?
**A.** 2.1 µM

**Q.** What about the Ki (Mcl-1) of the same compound?
**A.** < 0.001 µM

**Q.** Which results are given for Cc1cc(OCCCc2c3n(c4c(-c5c(C)nn(C)c5C)c(Cl)ccc24)[C@H](C)CN(c2cc(C(=O)O)c4cnn(CCN5CCOCC5)c4c2)C3=O)cc(C)c1Cl [Example 56, (R)-6-(7-chloro-10-(3-(4-chloro-3,5-dimethylphenoxy)propyl)-4-methyl-1-oxo-6-(1,3,5-trimethyl-1H-pyrazol-4-yl)-3,4-dihydropyrazino[1,2-a]indol-2(1H)-yl)-1-(2-morpholinoethyl)-1H-indazole-4-carboxylic acid]?
**A.** GI50 [1]: 0.81 µM; Ki (Mcl-1): < 0.001 µM

**Q.** With Cc1cc(OCCCc2c3n(c4c(-c5c(C)nn(C)c5C)c(Cl)ccc24)[C@H](C)CN(c2ccnc4c2cc(C(=O)O)n4C)C3=O)cc(C)c1Cl [Example 169, (R)-4-(7-chloro-10-(3-(4-chloro-3,5-dimethylphenoxy)propyl)-4-methyl-1-oxo-6-(1,3,5-trimethyl-1H-pyrazol-4-yl)-3,4-dihydropyrazino[1,2-a]indol-2(1H)-yl)-1-methyl-1H-pyrrolo[2,3-b]pyridine-2-carboxylic acid] as the compound, how does the GI50 [1] read?
**A.** 2.6 µM

**Q.** And the Ki (Mcl-1)?
**A.** < 0.001 µM

**Q.** With Cc1cc(N2C[C@@H](C)n3c(c(CCCOc4cc(C)c(Cl)c(C)c4)c4ccc(Cl)c(-c5c(C)nn(C)c5C)c43)C2=O)c2c(c1)cc(C(N)=O)n2C [Example 332, (R)-7-(7-Chloro-10-(3-(4-chloro-3,5-dimethylphenoxy)propyl)-4-methyl-1-oxo-6-(1,3,5-trimethyl-1H-pyrazol-4-yl)-3,4-dihydropyrazino[1,2-a]indol-2(1H)-yl)-1,5-dimethyl-1H-indole-2-carboxamide] as the compound, how does the GI50 [1] read?
**A.** 0.67 µM

**Q.** What about the Ki (Mcl-1) of the same compound?
**A.** 0.0028 µM
